Activity calls are given as the source filed them. The calls are words filed in the database; no cut-off is given here. Square brackets hold non-standard residues; d marks the D form. Peptide text beside a SMILES is read from it. * marks the point of attachment. NMeY = CN[C@@H](Cc1ccc(O)cc1)C(=O)O; NMeF = CN[C@@H](Cc1ccccc1)C(=O)O; X2 = CC(=O)CCCCC(C)CC(C)C(=O)*; X1 = C#CCCCCC(C)CC(C)C(=O)*; NMeA = CN[C@@H](C)C(=O)O

The experiment relates to NCI60. As to the kind of experiment: Cytotoxicity against human NCI60 cells. It counts as functional, cell-based.

As for `C#CCCCCC(C)CC(C)C(=O)N(C)[C@@H](Cc1ccccc1)C(=O)N[C@@H](C)C(=O)N(C)[C@@H](C)C(=O)N(C)[C@@H](Cc1ccc(OC)cc1)C(N)=O` (some centres not stated) (X1-[NMeF]A[NMeA][NMeY](Me)-NH2), the result was inactive. The value for `COc1ccc(C[C@@H](C(N)=O)N(C)C(=O)[C@H](C)N(C)C(=O)[C@H](C)NC(=O)[C@H](Cc2ccccc2)N(C)C(=O)C(C)CC(C)CCCCC(C)=O)cc1` (some centres not stated) (X2-[NMeF]A[NMeA][NMeY](Me)-NH2) was “inactive”.

The values are drawn from ChEMBL document CHEMBL1158666, “Carmabins A and B, new lipopeptides from the Caribbean cyanobacterium Lyngbya majuscula” (J Nat Prod, 1998).
